Converted amounts (≈) assume the structure as drawn.
How the values were obtained:
[1] = tested on: fungal cultures (Candida albicans & Cryptococcus neoformans); test: Kirby-Bauer disc diffusion, fungi; type: cell-based
Streptococcus mutans = test: Kirby Bauer disc diffusion, Streptococcus mutans; type: cell-based
Corynebacterium = test: Kirby Bauer disc diffusion, Corynebacterium; type: cell-based
[2] = tested on: M. tuberculosis (H37RV Strain) ATCC 25177; test: Anti-TB activity, microplate Alamar Blue assay (MABA); type: cell-based, Mycobacterium Tuberculosis; details: for MIC: Mycobacterium tuberculosis, 120 h, read-out: MIC (minimum inhibition concentration); for MIC (minimum inhibition concentration): lowest drug concentration preventing colour change blue to pink, 37° C., five days, tested 100 to 0.2 μg/ml
Male Wistar rats = test: Eddy Hot Plate method; type: in vivo; details: 0.5 mg/kg and 1 mg/kg s.c., 55±0.5° C., compared to pentazocine 20 mg/kg s.c.
Procedure: Male Wistar rats initially weighing 180-200 g were divided into the following groups of six animals each as follows: • Experiment-I: • 1. Group-I: Control—10% Dimethyl sulfoxide (DMSO) (0.5 ml s.c) • 2. Group-II: Standard—Pentazocine (20 mg/kg body weight, s.c.) • 3. Group-III: Compound-ARP100102 (0.5 mg/kg body weight, s.c.) • Experiment-II: • Same as Experiment I except Group III dosage was 1 mg/kg body weight. • The hot plate method was originally developed by Woolfe and MacDonald (1944). The paws of rat are very sensitive to heat at temperatures which are not damaging to the skin. The response is in the form of jumping, withdrawal of paws or licking of the paws (Eddy and Leimback, 1953). The animals were placed on Eddy's hot plate at a temperature of 55±0.5° C. […] Reaction time and the type of response were noted using a stopwatch. The latency was recorded before and after 30, 60, 90 and 120 minutes following s.c. injection of test compounds (0.5 mg and 1 mg·kg), standard drug (pentazocine) and control vehicle respectively. The dose selection of the test compounds was based on the literature of nicotine (0.32-1.6 mg/kg s.c.). Average reaction time was then calculated and the percentage variation calculated using the following ratio: Percentage protection=Drug latency−Baseline latency×100Baseline latency

[3] = tested on: Gram positive bacteria (Staphylococcus aureus, Enterococcus faecalis), Gram negative bacteria (E. Coli and Pseudomonas aeruginosa); test: Kirby-Bauer disc diffusion, bacteria; type: cell-based
Male Albino Mice = test: Acetic Acid-Induced Writhing Response test; type: in vivo
Procedure: Group-I: Control-Normal saline (0.1 ml i.p./10 gm) • 2. Group-II: Diclofenac (10 mg/kg body weight, i.p.) • 3. Group-V: Compound-ARP100120 (3 mg/kg body weight, i.p.) • The number of writhes (abdominal muscular contractions), stretching of the hind limbs and trunk twisting were counted 5 minutes after the injection of 1% acetic acid (v/v, 0.1 mL/10 g body weight, i.p.). The data collected represented the total number of writhes observed in duration of 10 minutes (5-15 minutes after the injection). Percentage inhibition was then calculated. Percentage inhibition ═(N−N^t/N)×100, where N is the average number of writhing of control group and N^t is the average number of writhing of test group. • Results are as follows: […]

`CC(=O)c1ccc(-c2cncc(C(=O)C3CCN(C)C3=O)c2)s1` (stereo not shown) [ARP100101, 3-(5-(5-acetylthiophen-2-yl)nicotinoyl)-1-methylpyrrolidin-2-one] was tested, and the “antifungal activity (zone of inhibition, disc diffusion)” value ([1]; 50 μg) was “exhibit antifungal activity” and the “antifungal activity (zone of inhibition, disc diffusion)” value ([1]; 100 μg) was “exhibit antifungal activity”.
In the case of `CN1CCC(C(=O)c2cncc(-c3ccc(F)cc3)c2)C1=O` (stereo not shown) [ARP100102, 3-(5-(4-fluorophenyl)nicotinoyl)-1-methylpyrrolidin-2-one], the “antibacterial activity against Streptococcus mutans (inhibition zone)” value (Streptococcus mutans; 50 μg) is reported as “good antibacterial activity”, the “antibacterial activity against Streptococcus mutans (inhibition zone)” value (Streptococcus mutans; 100 μg) is reported as “good antibacterial activity” and the “antibacterial activity against Corynebacterium (inhibition zone)” value (Corynebacterium; 50 μg) is reported as “good antibacterial activity”. The “antibacterial activity against Corynebacterium (inhibition zone)” value (Corynebacterium; 100 μg) was “good antibacterial activity”, the “antifungal activity (zone of inhibition, disc diffusion)” value ([1]; 5 μg) was “exhibit antifungal activity” and the “antifungal activity (zone of inhibition, disc diffusion)” value ([1]; 25 μg) was “exhibit antifungal activity”. For the same compound, the “antifungal activity (zone of inhibition, disc diffusion)” value ([1]; 50 μg) was “exhibit antifungal activity”, the “antifungal activity (zone of inhibition, disc diffusion)” value ([1]; 100 μg) was “exhibit antifungal activity” and the MIC [2] was ≤ 0.05 mg/L. The “analgesic activity (reaction time in hot plate test)” value (Male Wistar rats) was “demonstrate analgesic activity”.
In the case of `Cc1cccc(-c2cncc(C(=O)C3CCN(C)C3=O)c2)c1` (stereo not shown) [ARP100104, 1-methyl-3-(5-m-tolylnicotinoyl)pyrrolidin-2-one], the “antifungal activity (zone of inhibition, disc diffusion)” value ([1]; 100 μg) is reported as “exhibit antifungal activity”.
`CN1CCC(C(=O)c2cncc(-c3ccc(Cl)cc3)c2)C1=O` (stereo not shown) [ARP100105, 3-(5-(4-chlorophenyl)nicotinoyl)-1-methylpyrrolidin-2-one] was tested, and the “antifungal activity (zone of inhibition, disc diffusion)” value ([1]; 50 μg) was “both antibacterial and antifungal activity”, the “antifungal activity (zone of inhibition, disc diffusion)” value ([1]; 100 μg) was “both antibacterial and antifungal activity” and the “antibacterial activity (zone of inhibition, disc diffusion)” value ([3]; 50 μg) was “both antibacterial and antifungal activity”. The “antibacterial activity (zone of inhibition, disc diffusion)” value ([3]; 100 μg) was “both antibacterial and antifungal activity”.
With `CN1CCC(C(=O)c2cncc(-c3ccc(C=O)cc3)c2)C1=O` (stereo not shown) [ARP100106, 4-(5-(1-methyl-2-oxopyrrolidine-3-carbonyl)pyridin-3-yl)benzaldehyde] the “antifungal activity (zone of inhibition, disc diffusion)” value ([1]; 100 μg) was “both antibacterial and antifungal activity” and the “antibacterial activity (zone of inhibition, disc diffusion)” value ([3]; 100 μg) was “both antibacterial and antifungal activity”.
With `COc1ccc(-c2cncc(C(=O)C3CCN(C)C3=O)c2)cc1` (stereo not shown) [ARP100108, 3-(5-(4-methoxyphenyl)nicotinoyl)-1-methylpyrrolidin-2-one] the “antifungal activity (zone of inhibition, disc diffusion)” value ([1]; 100 μg) was “exhibit antifungal activity”.
In the case of `CN1CCC(C(=O)c2cncc(-c3cccc(F)c3)c2)C1=O` (stereo not shown) [ARP100111, 3-(5-(3-fluorophenyl)nicotinoyl)-1-methylpyrrolidin-2-one], the “antibacterial activity on both gram positive and gram negative bacteria” value ([3]; 100 μg) is reported as “showed antibacterial activity”.
In the case of `CN1CCC(C(=O)c2cncc(-c3ccc4ccccc4c3)c2)C1=O` (stereo not shown) [ARP100119, 1-methyl-3-(5-(naphthalen-2-yl)nicotinoyl)pyrrolidin-2-one], the “antifungal activity (zone of inhibition, disc diffusion)” value ([1]; 50 μg) is reported as “exhibit antifungal activity” and the “antifungal activity (zone of inhibition, disc diffusion)” value ([1]; 100 μg) is reported as “exhibit antifungal activity”.
`CC(=O)Oc1ccc(-c2cncc(C(=O)C3CCN(C)C3=O)c2)cc1` (stereo not shown) [ARP100120, 4-(5-(1-methyl-2-oxopyrrolidine-3-carbonyl)pyridin-3-yl)phenyl acetate] was tested, and the “analgesic activity (writhing test)” value (Male Albino Mice; 3 mg/kg i.p.) was “demonstrate analgesic activity” and the “antifungal activity (zone of inhibition, disc diffusion)” value ([1]; 100 μg) was “exhibit antifungal activity”.
For `CN1CCC(C(=O)c2cncc(-c3cccc(C=O)c3)c2)C1=O` (stereo not shown) [ARP100121, 3-(5-(1-methyl-2-oxopyrrolidine-3-carbonyl)pyridin-3-yl)benzaldehyde], the “antifungal activity (zone of inhibition, disc diffusion)” value ([1]; 50 μg) was “exhibit antifungal activity” and the “antifungal activity (zone of inhibition, disc diffusion)” value ([1]; 100 μg) was “exhibit antifungal activity”.
For `CCCCc1cncc(C(=O)C2CCN(C)C2=O)c1` (stereo not shown) [ARP100122, 3-(5-butylnicotinoyl)-1-methylpyrrolidin-2-one], the “antifungal activity (zone of inhibition, disc diffusion)” value ([1]; 100 μg) was “exhibit antifungal activity”.
For `O=C(O)c1cn(C2CC2)c2cc(N3CCNCC3)c(F)cc2c1=O` [Ciprofolxacin], the “MIC (minimum inhibition concentration)” value [2] was 3.125 mg/L (≈ 9.43 µM).
In the case of `O=C(O)Cc1ccccc1Nc1c(Cl)cccc1Cl` [Diclofenac, reference compound], the “Number of Writhing” value (Male Albino Mice; 5-15 minutes after 1% acetic acid i.p., Diclofenac 10 mg/kg i.p., ARP100120 3 mg/kg i.p.) is reported as 34.50 ± 1.586 and the “Percentage Inhibition (writhing)” value (Male Albino Mice; versus control, Diclofenac 10 mg/kg i.p., ARP100120 3 mg/kg i.p.) is reported as 26.86%.
For `CN1CCCC1c1cccnc1` (stereo not shown) [Nicotine], the “antibacterial activity (disc diffusion)” value ([3]; 1000 μg/ml) was “did not show any antibacterial activity”.
`NC(=O)c1cnccn1` [Pyrazinamide] gave an MIC [2] of 3.12 mg/L (≈ 25.4 µM).
In the case of `CN[C@@H]1[C@H](O[C@H]2[C@H](O[C@H]3[C@H](O)[C@@H](O)[C@H](N=C(N)N)[C@@H](O)[C@@H]3N=C(N)N)O[C@@H](C)[C@]2(O)C=O)O[C@@H](CO)[C@H](O)[C@H]1O` [Steptomycin], the “MIC (minimum inhibition concentration)” value [2] is reported as 6.25 mg/L (≈ 10.7 µM).

Source: patent US8835640B1, “Nicotine derivatives” (priority 2011, dated 2014)
